PMC4072806, “Defining Immune Engagement Thresholds for In Vivo Control of Virus-Driven Lymphoproliferation” (PLoS Pathogens, 2014)
Read-outs that look alike come from different tables or passages of the source. No end group written: not given here.

Tests used:
[1] = system: OT-I CTL (H2K^b-OVA-specific TcR of OT-I); assay: Functional avidity of OT-I CTL by IFNγ production (ELISA); type: cell-based, mouse; settings: Figure 1C, naive OT-I CD8+ T cells with peptide-loaded irradiated RMA/S cells, 72 h 37°C, repeated in duplicates 4 times, read-out: OT-I sensitivity EC50
H2K^b = molecular target: T1, H2K^b (Mus musculus, UniProt P01901); type: cell-based
T1 construct: […]; endogenous in cells; host or cells: RMA/S cells (TAP-deficient)
Procedure: H2K^b stabilization was determined with TAP-deficient RMA/S cells. These were incubated overnight at 26°C to promote the export of empty H2K^b complexes, then loaded with graded concentrations of OVA or APL peptides (Thermo Scientific) for 2 h at 26°C and subsequently transferred to 37°C for 2 h to destabilize empty MHC molecules. The cells were then washed twice, stained with anti-H2K^b (AF6-88.5.5.3, eBioscience), and analysed on a LSR Fortessa (BD Biosciences). Mean fluorescence intensities were determined with FlowJo (Tree Star). To measure the ex vivo stimulation of naïve OT-I T cells by OVA and APLs, CD8^+ T cells from the spleens of naïve OT-I mice were purified by negative selection (CD8^+ T cell isolation kit, Miltenyi Biotech); for equivalent peptide/MHC class I numbers, irradiated (7500 rads) RMA/S cells were loaded with different peptides at 26°C, then incubated at 37°C; and 5×10^4 OT-I T cells were cultured with 2.5×10^4 RMA/S cells for 72 h at 37°C. IFNγ levels in culture supernatants were measured by ELISA (DuoSet ELISA development kit, R&D Systems). The data were fitted to sigmoidal dose-response curves and EC50 values calculated using GraphPad Prism.

[2] = molecular target: H2K^b (MHC class I, empty complexes on TAP-deficient RMA/S cells) (mouse (endogenous in RMA/S))
[3] = Figure 1B, TAP-deficient RMA/S cells, peptide 2 h 26°C then 2 h 37°C, anti-H2K^b FACS MFI, experiment repeated 3 times, read-out: EC50 (H2K^b stabilization)

Compound | EC50 [1] | EC50 (H2K^b; [3]) | other results
CC[C@H](C)[C@H](NC(=O)[C@@H](NC(=O)[C@@H](N)CO)[C@@H](C)CC)C(=O)N[C@@H](CC(N)=O)C(=O)N[C@@H](Cc1ccccc1)C(=O)N[C@@H](CCC(=O)O)C(=O)N[C@@H](CCCCN)C(=O)N[C@@H](CC(C)C)C(=O)O [OVA, reference compound] | 0.0182 nM |  | EC50 (H2K^b; RMA/S cells, read-out: concentration giving 50% maximal H2K^b stabilization (EC50)): 40 nM
EIINFEKL [E1] | 7780 nM | 235 nM | 
SIINFEKA [A8] | 10300 nM | 2470 nM | 
SIIRFEKL [R4] |  | 56 nM | 
SIIGFEKL [G4] | 3610 nM | 34 nM | 
SIIQFEKL [Q4] | 0.243 nM | 30 nM | 
SIIVFEKL [V4] | 68.5 nM | 63 nM | 
A8 altered peptide ligand of OVA (mutated anchor residue) |  |  | fold more peptide than E1 for equivalent H2K^b stabilization [2]: 10 fold
OVA peptide, amino acid residues 257-264 of ovalbumin (SIINFEKL) |  |  | EC50 [2]: 40 nM
E1 altered peptide ligand of OVA (EIINFEKL) |  |  | fold more peptide than OVA for equivalent H2K^b stabilization [2]: 6 fold
